The values that follow come from US12496301B2, “Use of androgen receptor degrader for the treatment of spinal and bulbar muscular atrophy” (Arvinas Operations, Inc., priority 2023, dated 2025).

Structures are written as SMILES. Entries after “also recorded” stand apart in the source; their conditions may differ.

Data set [1] is described as follows: Oral bioavailability in non-human primates. Type of data set: in vivo.
The test system of the next data set is hepatocyte. As to the kind of experiment: In vitro ADMET: hepatocyte toxicity. The data set is classed as cell-based. The conditions noted are these: at 1 μM.
Data set [2] deals with polyQ-AR. As to the kind of experiment: Myotube high content imaging of polyQ-AR in myotubes that overexpress polyQ-AR. Type of data set: cell-based, human. Here is the method:
Cells were maintained in skeletal growth medium (PromoCell #23160). Immortalized myoblasts harboring inducible human androgen receptor with 56 CAG repeats (hAR56Q) were constructed by lentiviral transduction with CMV-rtTA and TetO-AR56Q-T2A-Puromycin (Mamchaoui, K. et al. Skeletal Muscle 1, 34 (2011)).
On day 0, immortalized myoblasts with inducible polyQ-AR (described above in “Cell lines”) cells were seeded onto Geltrex-coated 96-well plates at a density of 4×10^6 cells per plate in myoblast basal media (Promocell C-23060) supplemented with 1% penicillin-streptomycin (Pen Strep) antibiotics. The plates were then incubated overnight at 37° C. in a 5% CO2 environment. Upon reaching 100% confluency (Day 1), the myoblast media were aspirated and replaced with myotube differentiation media (Promocell C-23061). The cells were cultured in this differentiation media for 6 days, with media changes occurring every three days.
On the sixth day of differentiation, the compounds and doxycycline ([…]) diluted in 100% dimethyl sulfoxide (DMSO) were added to the myotubes. The plate was then incubated for 24 hours at 37° C. in an incubator. On the following day (Day 7), the culture media was removed from the plates and replaced with 50 μL of 4% paraformaldehyde (PFA) prepared in 1× phosphate-buffered saline (PBS). The plates were incubated with PFA for 15 minutes, followed by three washes with PBS. Subsequently, the myotubes were permeabilized for 15 minutes using 0.5% Triton X-100 in 1×PBS and then blocked with 5% Bovine Serum Albumin (BSA) (Thermofisher, #37520) for one hour at room temperature. After blocking, the plates were incubated overnight at 4° C. with primary antibodies: a 1:100 diluted Androgen Receptor antibody (D6F11 Cell Signaling 5135S) and a 1:200 diluted Desmin antibody (Thermofisher, MA1-22150) in PBS containing 0.1% BSA. […] Degradation was quantified by determining the average intensity of AR within separate nuclear and cytoplasmic compartments in Desmin positive area (myotubes).

A further data set has as its target T1, AR (Homo sapiens, UniProt P10275).
T1 sequence (P10275 1-920 Q868H): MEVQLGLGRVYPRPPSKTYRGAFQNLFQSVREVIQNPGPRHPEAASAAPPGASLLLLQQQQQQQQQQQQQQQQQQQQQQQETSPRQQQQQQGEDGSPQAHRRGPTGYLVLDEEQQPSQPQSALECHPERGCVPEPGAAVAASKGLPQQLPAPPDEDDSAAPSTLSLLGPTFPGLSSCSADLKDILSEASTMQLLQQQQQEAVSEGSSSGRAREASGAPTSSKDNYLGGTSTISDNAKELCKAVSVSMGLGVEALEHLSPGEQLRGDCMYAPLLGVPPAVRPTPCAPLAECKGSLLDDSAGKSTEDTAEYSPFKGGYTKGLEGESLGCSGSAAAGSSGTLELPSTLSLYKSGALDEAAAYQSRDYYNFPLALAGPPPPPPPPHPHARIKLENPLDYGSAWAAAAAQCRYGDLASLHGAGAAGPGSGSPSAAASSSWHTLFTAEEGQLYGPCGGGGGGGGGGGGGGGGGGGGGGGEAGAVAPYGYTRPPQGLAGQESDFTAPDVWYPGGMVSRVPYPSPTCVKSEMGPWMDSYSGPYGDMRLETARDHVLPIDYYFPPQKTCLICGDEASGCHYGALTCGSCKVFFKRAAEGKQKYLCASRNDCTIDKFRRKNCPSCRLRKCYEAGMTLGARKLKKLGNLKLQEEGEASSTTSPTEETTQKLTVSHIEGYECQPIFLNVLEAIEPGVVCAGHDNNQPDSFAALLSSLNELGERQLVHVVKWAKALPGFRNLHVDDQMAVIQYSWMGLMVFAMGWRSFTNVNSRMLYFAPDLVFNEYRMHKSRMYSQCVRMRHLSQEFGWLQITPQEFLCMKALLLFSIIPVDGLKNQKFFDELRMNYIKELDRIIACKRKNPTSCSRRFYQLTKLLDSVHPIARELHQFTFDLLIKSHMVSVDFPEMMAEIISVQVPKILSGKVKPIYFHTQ
In words: AR agonism assay in MDA-MB-453 ARE-luc reporter cells in the presence of pomalidomide. The data set is classed as cell-based. The conditions noted are these: MDA-MB-453 AR luciferase reporter, with pomalidomide. As for the experimental part:
The AR Responsive Luciferase Reporter MDA-MB-453 Stable Cell Line (MDA-MB-453 ARE-luc) was utilized for the AR agonism assay. These cells constitutively express the firefly luciferase reporter gene under the control of the androgen receptor response element. MDA-MB-453 ARE-luc cells were cultured in RPMI media (Thermo Fisher Scientific) supplemented with 5% charcoal-Dextran treated fetal bovine serum and were maintained at 37° C. in a 5% CO2 incubator. On day 0, the cells were seeded in 96-well plates at a density of 5×10^6 cells per plate. To prevent serum androgen interference during the AR agonism assay, the cells were cultured in phenol-free RPMI media without FBS. On day 1, the cells were treated with the compounds to establish concentration-response curves (CRCs). The compounds were administered at a top concentration of 300 nM with half-log dilutions. The synthetic AR agonist R1881 served as a positive control, with a top concentration of 30 nM and half-log dilutions. E3 ligase inhibitor pomalidomide was included in each well alongside the compounds at a concentration tenfold higher than that of the treated compounds. On day 2, the culture medium was removed, and luminescence data were obtained using the Bright Glo Assay (Promega, Catalog No. E2620) with 50 μL of Bright Glo buffer per well. Luminescence signals were recorded using a plate reader, and the agonism effect was calculated as a percentage using the formula: Agonism effect (%)=(Luminescence signal of compound/Maximum signal of R1881 at 30 nM)*100.
In general terms: In a reporter assay the amount or activity of a reporter protein is the signal.

Another data set concerns the target hERG (Homo sapiens, UniProt Q12809). In words: In vitro ADMET: hERG inhibition. For orientation: hERG is a cardiac potassium channel; its block is linked to QT prolongation.
Data set [3] deals with polyQ-AR. In words: Global proteomics in SBMA hiPSC-myotubes: polyQ-AR and specificity. The conditions noted are these: 12 nM, SBMA hiPSC-myotubes. Type of data set: cell-based, human. An excerpt:
(§1) (FIG. 12A). […] (FIG. 12C).

Another data set addresses T2, PDE6D (Homo sapiens, UniProt O43924).
T2 construct: endogenous in cells; host or cells: SBMA hiPSC-derived myotubes
As to the kind of experiment: Global proteomics / Western blot in SBMA hiPSC-myotubes: neosubstrate PDE6D. Type of data set: cell-based. The conditions noted are these: global proteomics, SBMA hiPSC-myotubes.
From the text: as §1
Background: A western blot detects proteins with antibodies after separation by electrophoresis.

Data set [4] relates to polyQ-AR. In words: polyQ-AR degradation in SBMA patient hiPSC-derived myotubes, capillary immunoassay. Type of data set: cell-based, human. The conditions noted are these: concentration response. Here is the method:
Lysates for hiPSC-derived myotubes were prepared in lysis buffer ([…], 50 mM sodium chloride, 1% NP-40, 1% SDS) supplemented with Halt Protease Inhibitor (78437 Thermo Fisher Scientific), Benzonase, and MgCl2 (1 mM final concentration). The lysates were cleared by centrifugation at 4° C. and supernatants were quantified using the BIO-RAD DC protein assay (5000112 BIO-RAD). The AR and protein levels were quantified by an automated capillary immunoassay experiment (ProteinSimple). The AR and Myosin Protein levels were quantified and normalized to total protein.
Control and SBMA hiPSCs were differentiated into myotubes as previously described (Caron, L. et al. 2016, STEM CELLS Transl. Med. 5, 1145-1161) using the skeletal muscle differentiation kit (Amsbio). hiPSCs were dissociated to single cells using Accutase and plated on Geltrex-coated 10 cm culture plates at a density of 200,000 cells per plate with SBMA hiPSCs in skeletal muscle induction media (SKM01, AMSBIO). Media changes were performed every second day until cells were confluent (˜7 days). The resulting myogenic precursor cells were then dissociated to single cells using Accutase and replated on Matrigel-coated 24-well tissue culture plate with 500 μL of cells at 35,000 cells per mL in skeletal myoblast media (SKM02, AMSBIO). Half media changes were performed every second day until myoblasts reached confluence (˜7 days). The media was then switched to myotube medium (SKM03, ASMBIO). Media changes every second day until myotube formation was confirmed by microscopy. Myotubes were treated on day 20 of differentiation (6 days' worth of SKM03 media) with compounds diluted in DMSO for a final DMSO concentration of 0.01% in SKM03 media. The cells were lysed 24 hours later in Pierce RIPA buffer (Cat. No. 89900, ThermoFisher) supplemented with 1× Halt protease inhibitor cocktail (Cat. No. 87786, ThermoFisher), 1 mM MgCl2, and 1 μL Benzonase Nuclease. AR protein was measured by capillary electrophoresis. […]

T2 sequence (O43924 whole entry): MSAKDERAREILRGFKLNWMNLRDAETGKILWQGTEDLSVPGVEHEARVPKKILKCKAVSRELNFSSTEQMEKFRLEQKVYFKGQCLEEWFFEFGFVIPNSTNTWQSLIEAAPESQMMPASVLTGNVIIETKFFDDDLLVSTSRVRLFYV
Sequence of hERG (Q12809 whole entry): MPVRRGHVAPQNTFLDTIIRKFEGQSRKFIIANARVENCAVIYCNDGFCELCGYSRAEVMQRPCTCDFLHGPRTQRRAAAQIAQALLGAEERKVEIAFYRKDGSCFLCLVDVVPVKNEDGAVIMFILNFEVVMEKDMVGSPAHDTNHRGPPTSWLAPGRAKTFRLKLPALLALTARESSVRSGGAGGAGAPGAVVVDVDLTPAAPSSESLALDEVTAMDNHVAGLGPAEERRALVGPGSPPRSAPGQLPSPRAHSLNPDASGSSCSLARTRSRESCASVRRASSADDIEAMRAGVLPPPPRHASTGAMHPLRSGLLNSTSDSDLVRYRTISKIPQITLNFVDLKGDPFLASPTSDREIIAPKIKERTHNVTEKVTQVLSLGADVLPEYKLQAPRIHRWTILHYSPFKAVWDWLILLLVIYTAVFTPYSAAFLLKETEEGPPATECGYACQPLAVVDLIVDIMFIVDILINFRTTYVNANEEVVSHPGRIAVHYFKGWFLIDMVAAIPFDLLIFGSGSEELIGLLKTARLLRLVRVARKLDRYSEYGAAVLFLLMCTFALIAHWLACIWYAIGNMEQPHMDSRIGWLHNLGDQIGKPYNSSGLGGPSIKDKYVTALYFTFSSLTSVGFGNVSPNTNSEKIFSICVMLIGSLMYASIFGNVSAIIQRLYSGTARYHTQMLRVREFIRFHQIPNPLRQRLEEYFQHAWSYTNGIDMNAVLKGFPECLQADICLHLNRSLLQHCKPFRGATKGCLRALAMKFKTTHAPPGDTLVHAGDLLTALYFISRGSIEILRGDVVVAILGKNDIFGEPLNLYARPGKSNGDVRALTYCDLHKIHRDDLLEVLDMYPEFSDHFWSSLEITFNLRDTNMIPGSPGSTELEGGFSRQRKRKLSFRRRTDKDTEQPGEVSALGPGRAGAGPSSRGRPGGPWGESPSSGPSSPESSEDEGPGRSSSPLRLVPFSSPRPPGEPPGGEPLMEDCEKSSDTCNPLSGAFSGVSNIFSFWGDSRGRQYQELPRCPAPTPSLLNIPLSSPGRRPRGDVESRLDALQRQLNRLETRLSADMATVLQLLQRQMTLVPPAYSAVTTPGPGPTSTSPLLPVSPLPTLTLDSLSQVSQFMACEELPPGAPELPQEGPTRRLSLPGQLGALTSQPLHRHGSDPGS

For `COc1cc(O[C@H]2CC[C@H](NC(=O)c3cnc(N4CCC(CN(C(C)C)[C@H]5C[C@H](Oc6ccc7c(c6)C(=O)N(C6CCC(=O)NC6=O)C7=O)C5)CC4)cn3)CC2)ccc1C#N` (stereo partly shown) [Compound E], the oral bioavailability result in data set [1] is “poor oral bioavailability”.
Compound `CC1(C)[C@H](NC(=O)c2cnc(N3CCC(CN4CCN(c5cc6c(cc5F)C(=O)N(C5CCC(=O)NC5=O)C6=O)CC4)CC3)nc2)C(C)(C)[C@H]1Oc1ccc(C#N)c(Cl)c1` (stereo partly shown) [Compound C] displayed a hepatocyte toxicity in the data set with hepatocyte of 50%.
The EC50 is the concentration needed to bring the measured effect to its halfway point. In the case of `Cc1cc(O[C@H]2C(C)(C)[C@H](NC(=O)c3cnc(N4CCC(CN(C(C)C)[C@H]5C[C@H](Oc6ccc7c(c6)C(=O)N(C6CCC(=O)NC6=O)C7=O)C5)CC4)nc3)C2(C)C)cc(C)c1C#N` (stereo partly shown) [Compound B], the “mean Dmax for polyQ-AR in myotube nuclei” value in the data set on polyQ-AR [2] (24 hours treatment, nuclear compartment) was “increase in nuclear polyQ-AR”. The “total polyQ-AR signal in myotubes” value in the data set with polyQ-AR [2] (data not shown) is reported as “reduced the total polyQ-AR signal”. The “agonism activity at Emax relative to R1881” value at AR is > 40%. In addition, the EC50 at AR (read-out: EC50, AR agonist activity) worked out at 37 nM.
As to `CCN(CC1CCN(c2cnc(C(=O)N[C@H]3C(C)(C)[C@H](Oc4cc(C)c(C#N)c(C)c4)C3(C)C)cn2)CC1)[C@H]1C[C@H](Oc2ccc3c(c2)C(=O)N(C2CCC(=O)NC2=O)C3=O)C1` (stereo partly shown) [Compound D], the hERG inhibition on hERG was < 10 µM.
On to `CC(C)N(CC1CCN(c2ncc(C(=O)N[C@H]3C(C)(C)[C@H](Oc4ccc(C#N)c(Cl)c4)C3(C)C)cn2)CC1)[C@H]1C[C@H](Oc2ccc3c(c2)C(=O)N(C2CCCN(C)C2=O)C3=O)C1` (stereo partly shown) [Compound F, reference compound], for which, in the data set on polyQ-AR [3], the “polyQ-AR degradation compared to control, global proteomics” value was “does not induce degradation; also recorded: does not degrade AR”. Also, the PDE6D as neosubstrate result on PDE6D was “not a neosubstrate”. Moreover, the “polyQ-AR degradation in SBMA hiPSC-myotubes” value in the data set on polyQ-AR [4] is on record as “did not induce polyQ-AR degradation”.
